The values that follow come from patent US20240189239A1, “PROCESS FOR CONTINUOUS HOT MELT GRANULATION OF LOW SOLUBLE PHARMACEUTICALS” (Merck Patent GmbH, priority 2021, published 2024).

This data set in a line: Dissolution measurement of granules of Example 1 (paddle, 900 ml SGFsp, 37° C.). In kind it is physicochemical. The note with it: paddle 75 rpm, 50 mg ITZ, up to 120 min. The protocol:
For measuring the dissolution, granules as obtained in Example 1 were used directly without further processing. 3 samples per temperature setup were used. 500 mg 10% ITZ granulate were weighted (Mettler Toledo Delta Range XP105) which equals 50 mg ITZ API.
Dissolution was performed using a Sotax AT7 smart with an online Photometer Specord 200+ from Analytik Jena. As a medium 900 ml SGF.sp (20 g NaCl, 800 ml 0.1 M HCl ad 10.0 L VE-water) at 37° C.±0.5 was used. The following settings were used: Rotation speed 75 rpm; Paddle method; Pre-filter: Glass Mircofiber Filters GE Whatmann GF/D Diameter 25 mm, 5 mm HELMA flow-through cuvette, Sampling Points: 5,20,35,50,60,120 Min.
The granulation with polyvinyl alcohol at a temperature between 140° C. to 170° C. increases the solubility of the compound (lines 2 to 6). At 175° C. the solubility suddenly increases. With higher temperature solubility is further enhanced. An immediate release can be observed for temperatures of 180° C. to 190° C. (lines 8 to 10). With a further temperature increase above the melting temperature of PCA (line 11; 200° C.) the drug release rates are delayed.

For the molecule `CCC(C)n1ncn(-c2ccc(N3CCN(c4ccc(OCC5COC(Cn6cncn6)(c6ccc(Cl)cc6Cl)O5)cc4)CC3)cc2)c1=O` (stereo not shown) [crystalline itraconazole, itraconazole], the “solubility / drug release of itraconazole in the release medium (FIG. 3)” value is reported as “very low solubility”.
